From patent US8961931B2, “18F-labeled monomeric galactose derivative used as tomography probe” (Institute of Nuclear Energy Research, Atomic Energy Council, priority 2011, dated 2015)

System: liver
Experiment: DMN-induced liver fibrosis, H & E and Masson's trichrome staining
Type: in vivo, mouse
Method: Please refer to FIG. 6, which is a view showing liver fibrosis of mice dyed through H & E and Masson methods. As shown in the figures, dimethylnitrosamine (DMN) is used to induce liver fibrosis. 12 mice are randomly divided into two groups each having 6 mice. One is an experimental group and the other is a control group. Mice in the experimental group are injected with 10 mg·kg of DMN for 3 continuous days in a week, and this process lasts for four weeks. Mice in the control group are injected with the same amount of normal saline diluted into a density of 10 mg/ml. During the time for inducing liver fibrosis, all mice are fed with food and water normally. Four days after injecting DMN the final time, dyeing methods of H & E and Masson's are used to examine sliced tissues of mouse bodies for confirming DMN's ability on inducing liver fibrosis of the mice.
For examining the tissues, the mice are sacrificed by blowing high-density CO2 for the mice to breathe in at first. Then, the livers are taken out to sink left lateral lobe in 4% pH 7.4 phosphate-buffered paraformaldehyde. After being paraffin-embedded for 24 hrs, 4 μm of each tissue is taken.
The tissues are examined for their morphological changes through methods of Hematoxylin and Eosin stains and then Masson's trichrome is used to examine statuses of liver fibrosis. […]

How did the “average weight of mouse having fibrosis liver relative to normal mouse” value (DMN 3 continuous days a week for four weeks) turn out when `CN(C)N=O` [DMN, dimethylnitrosamine] was run?
Its value is 92%.

And the “Masson's trichrome staining of liver tissue” value (four days after final DMN injection)?
Its value is “show blue color on fibrosis tissues”.
